Results: patent publication US20230310428A1, “EGFR INHIBITOR AND PREPARATION METHOD AND USE THEREOF” (HONGYUN BIOTECH CO., LTD., priority 2020, published 2023)
Read-outs that look alike come from different tables or passages of the source.

Columns and labels:
Test in all cases: Growth inhibitory activity of compounds on BaF3 cell lines stably transfected with kinase (MTS, 48 h)
Format in all cases: cell-based
[1] = target: T1, various mutants of kinase EGFR (BaF3 cell lines stably transfected with kinase) (Homo sapiens, UniProt P00533, L858R/T790M)
T1 construct: expressed in transfected cells; host or cells: BaF3
T1 sequence (P00533 25-1210 T790M/L858R): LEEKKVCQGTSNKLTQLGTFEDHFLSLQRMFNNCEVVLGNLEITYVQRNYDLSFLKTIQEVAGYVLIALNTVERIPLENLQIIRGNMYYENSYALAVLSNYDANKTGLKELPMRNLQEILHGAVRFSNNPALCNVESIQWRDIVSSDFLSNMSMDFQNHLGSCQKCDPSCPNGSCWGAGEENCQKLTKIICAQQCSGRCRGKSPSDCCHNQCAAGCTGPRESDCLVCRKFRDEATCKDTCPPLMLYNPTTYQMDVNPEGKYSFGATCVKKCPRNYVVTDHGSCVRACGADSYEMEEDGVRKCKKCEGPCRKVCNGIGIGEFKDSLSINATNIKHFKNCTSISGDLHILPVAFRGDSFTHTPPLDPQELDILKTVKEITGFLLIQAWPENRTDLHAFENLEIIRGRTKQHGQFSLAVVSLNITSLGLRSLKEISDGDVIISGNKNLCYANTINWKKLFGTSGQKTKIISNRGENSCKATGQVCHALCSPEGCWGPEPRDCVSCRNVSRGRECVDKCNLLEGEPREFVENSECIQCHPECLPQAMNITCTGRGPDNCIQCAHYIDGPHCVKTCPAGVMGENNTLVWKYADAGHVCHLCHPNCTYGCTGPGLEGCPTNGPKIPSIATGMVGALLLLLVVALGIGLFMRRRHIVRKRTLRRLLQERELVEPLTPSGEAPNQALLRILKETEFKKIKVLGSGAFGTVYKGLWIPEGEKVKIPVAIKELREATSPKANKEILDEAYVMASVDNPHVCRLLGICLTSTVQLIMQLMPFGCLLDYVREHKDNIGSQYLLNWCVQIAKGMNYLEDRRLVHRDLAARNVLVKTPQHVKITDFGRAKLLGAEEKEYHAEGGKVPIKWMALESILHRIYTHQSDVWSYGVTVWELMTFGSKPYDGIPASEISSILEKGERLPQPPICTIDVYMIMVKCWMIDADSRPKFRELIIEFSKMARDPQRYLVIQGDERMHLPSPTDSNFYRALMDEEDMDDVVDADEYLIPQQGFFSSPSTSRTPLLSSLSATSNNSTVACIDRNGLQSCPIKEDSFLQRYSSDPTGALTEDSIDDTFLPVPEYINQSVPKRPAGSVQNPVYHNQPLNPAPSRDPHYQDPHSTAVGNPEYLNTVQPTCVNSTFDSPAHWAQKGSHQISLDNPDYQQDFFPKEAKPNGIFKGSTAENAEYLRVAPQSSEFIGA
Method in brief: (§1)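 OD at 490 nm after 1-4 h MTS/PES incubation gave growth inhibition relative to 0.1% DMSO negative and cell-free medium blank. Compounds: 8-point 1/3 dilution from 10 µM, 48 h, 37 °C. IC50 from inhibition curves; duplicates.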

[2] = target: T2, various mutants of kinase EGFR (BaF3 cell lines stably transfected with kinase) (Homo sapiens, UniProt P00533, T790M, form not given)
T2 construct: other: BaF3 cells stably transfected with EGFR Δ19Del/T790M; MTS, 48 h; other: BaF3 cell line stably transfected with EGFR Δ19Del/T790M; MTS, 48
T2 sequence (P00533 with tags, fused parts or gaps DEL746-750/T790M, form open): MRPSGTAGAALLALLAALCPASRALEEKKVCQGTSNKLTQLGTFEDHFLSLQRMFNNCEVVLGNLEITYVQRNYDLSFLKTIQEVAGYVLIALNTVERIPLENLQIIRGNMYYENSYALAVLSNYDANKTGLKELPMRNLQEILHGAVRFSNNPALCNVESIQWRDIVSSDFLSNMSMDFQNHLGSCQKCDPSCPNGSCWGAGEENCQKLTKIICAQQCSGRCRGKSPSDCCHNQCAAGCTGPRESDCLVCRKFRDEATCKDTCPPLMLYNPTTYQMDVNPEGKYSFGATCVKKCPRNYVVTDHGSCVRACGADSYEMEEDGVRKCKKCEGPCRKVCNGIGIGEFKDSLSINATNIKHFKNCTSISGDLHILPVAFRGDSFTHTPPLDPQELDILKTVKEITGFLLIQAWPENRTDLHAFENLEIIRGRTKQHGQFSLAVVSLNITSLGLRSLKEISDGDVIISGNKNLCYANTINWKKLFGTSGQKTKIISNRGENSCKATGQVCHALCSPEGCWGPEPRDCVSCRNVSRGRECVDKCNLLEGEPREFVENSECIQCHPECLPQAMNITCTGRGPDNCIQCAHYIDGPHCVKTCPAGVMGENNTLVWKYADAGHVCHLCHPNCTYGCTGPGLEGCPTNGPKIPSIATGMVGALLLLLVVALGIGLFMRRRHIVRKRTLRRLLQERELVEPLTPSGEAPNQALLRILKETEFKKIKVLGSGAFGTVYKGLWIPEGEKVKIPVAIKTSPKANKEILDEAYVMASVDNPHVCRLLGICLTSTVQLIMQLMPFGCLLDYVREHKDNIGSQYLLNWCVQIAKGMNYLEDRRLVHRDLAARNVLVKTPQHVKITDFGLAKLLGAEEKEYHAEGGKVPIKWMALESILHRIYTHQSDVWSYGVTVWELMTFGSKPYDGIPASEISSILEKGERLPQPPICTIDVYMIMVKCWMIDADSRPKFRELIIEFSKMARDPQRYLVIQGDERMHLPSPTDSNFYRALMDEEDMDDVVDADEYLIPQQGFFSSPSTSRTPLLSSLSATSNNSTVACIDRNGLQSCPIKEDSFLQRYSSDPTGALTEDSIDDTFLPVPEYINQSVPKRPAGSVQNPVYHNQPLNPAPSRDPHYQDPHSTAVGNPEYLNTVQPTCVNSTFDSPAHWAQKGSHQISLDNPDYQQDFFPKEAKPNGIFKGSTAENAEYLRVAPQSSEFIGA
Method in brief: as §1

[3] = target: T3, various mutants of kinase EGFR (BaF3 cell lines stably transfected with kinase) (Homo sapiens, UniProt P00533, C797S/L858R/T790M)
T3 construct: expressed in transfected cells; host or cells: BaF3
Method in brief: as §1

[4] = target: T4, various mutants of kinase EGFR (BaF3 cell lines stably transfected with kinase) (Homo sapiens, UniProt P00533, L858R)
T4 construct: expressed in transfected cells; host or cells: BaF3
T4 sequence (P00533 25-1210 L858R): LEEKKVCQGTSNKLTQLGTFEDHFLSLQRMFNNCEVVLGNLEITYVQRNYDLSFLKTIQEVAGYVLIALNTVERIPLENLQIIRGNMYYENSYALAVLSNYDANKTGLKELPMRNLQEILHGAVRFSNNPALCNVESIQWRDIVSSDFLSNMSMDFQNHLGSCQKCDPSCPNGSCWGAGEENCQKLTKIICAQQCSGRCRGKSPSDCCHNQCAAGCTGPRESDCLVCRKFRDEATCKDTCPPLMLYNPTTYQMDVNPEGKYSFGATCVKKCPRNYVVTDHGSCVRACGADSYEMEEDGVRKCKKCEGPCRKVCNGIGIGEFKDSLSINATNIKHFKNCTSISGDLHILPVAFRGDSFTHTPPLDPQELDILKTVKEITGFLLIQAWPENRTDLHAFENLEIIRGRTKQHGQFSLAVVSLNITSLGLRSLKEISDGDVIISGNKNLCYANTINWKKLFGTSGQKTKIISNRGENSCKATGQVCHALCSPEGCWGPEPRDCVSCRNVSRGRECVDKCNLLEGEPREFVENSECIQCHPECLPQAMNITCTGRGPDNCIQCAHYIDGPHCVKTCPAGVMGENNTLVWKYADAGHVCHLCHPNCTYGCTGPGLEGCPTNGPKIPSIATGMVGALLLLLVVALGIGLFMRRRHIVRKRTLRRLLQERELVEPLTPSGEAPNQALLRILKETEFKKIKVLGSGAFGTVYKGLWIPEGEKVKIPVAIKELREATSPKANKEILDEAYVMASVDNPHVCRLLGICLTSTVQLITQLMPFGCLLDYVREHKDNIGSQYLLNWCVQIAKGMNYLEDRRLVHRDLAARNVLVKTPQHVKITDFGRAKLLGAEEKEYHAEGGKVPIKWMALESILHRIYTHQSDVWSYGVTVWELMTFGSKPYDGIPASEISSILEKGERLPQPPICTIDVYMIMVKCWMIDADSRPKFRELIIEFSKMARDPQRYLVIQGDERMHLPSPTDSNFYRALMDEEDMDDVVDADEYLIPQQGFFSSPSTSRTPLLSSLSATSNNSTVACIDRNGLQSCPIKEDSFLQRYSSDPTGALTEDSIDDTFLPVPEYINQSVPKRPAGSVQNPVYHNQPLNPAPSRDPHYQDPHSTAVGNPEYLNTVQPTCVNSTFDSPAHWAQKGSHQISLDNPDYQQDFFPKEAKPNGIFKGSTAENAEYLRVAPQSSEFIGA
Method in brief: as §1

[5] = target: T5, various mutants of kinase EGFR (BaF3 cell lines stably transfected with kinase) (Homo sapiens, UniProt P00533, T790M/C797S, form not given)
T5 construct: other: BaF3 cells stably transfected with EGFR Δ19Del/T790M/C797S; MTS, 48; other: BaF3 cell line stably transfected with EGFR Δ19Del/T790M/C7
T5 sequence (P00533 with tags, fused parts or gaps DEL746-750/T790M/C797S, form open): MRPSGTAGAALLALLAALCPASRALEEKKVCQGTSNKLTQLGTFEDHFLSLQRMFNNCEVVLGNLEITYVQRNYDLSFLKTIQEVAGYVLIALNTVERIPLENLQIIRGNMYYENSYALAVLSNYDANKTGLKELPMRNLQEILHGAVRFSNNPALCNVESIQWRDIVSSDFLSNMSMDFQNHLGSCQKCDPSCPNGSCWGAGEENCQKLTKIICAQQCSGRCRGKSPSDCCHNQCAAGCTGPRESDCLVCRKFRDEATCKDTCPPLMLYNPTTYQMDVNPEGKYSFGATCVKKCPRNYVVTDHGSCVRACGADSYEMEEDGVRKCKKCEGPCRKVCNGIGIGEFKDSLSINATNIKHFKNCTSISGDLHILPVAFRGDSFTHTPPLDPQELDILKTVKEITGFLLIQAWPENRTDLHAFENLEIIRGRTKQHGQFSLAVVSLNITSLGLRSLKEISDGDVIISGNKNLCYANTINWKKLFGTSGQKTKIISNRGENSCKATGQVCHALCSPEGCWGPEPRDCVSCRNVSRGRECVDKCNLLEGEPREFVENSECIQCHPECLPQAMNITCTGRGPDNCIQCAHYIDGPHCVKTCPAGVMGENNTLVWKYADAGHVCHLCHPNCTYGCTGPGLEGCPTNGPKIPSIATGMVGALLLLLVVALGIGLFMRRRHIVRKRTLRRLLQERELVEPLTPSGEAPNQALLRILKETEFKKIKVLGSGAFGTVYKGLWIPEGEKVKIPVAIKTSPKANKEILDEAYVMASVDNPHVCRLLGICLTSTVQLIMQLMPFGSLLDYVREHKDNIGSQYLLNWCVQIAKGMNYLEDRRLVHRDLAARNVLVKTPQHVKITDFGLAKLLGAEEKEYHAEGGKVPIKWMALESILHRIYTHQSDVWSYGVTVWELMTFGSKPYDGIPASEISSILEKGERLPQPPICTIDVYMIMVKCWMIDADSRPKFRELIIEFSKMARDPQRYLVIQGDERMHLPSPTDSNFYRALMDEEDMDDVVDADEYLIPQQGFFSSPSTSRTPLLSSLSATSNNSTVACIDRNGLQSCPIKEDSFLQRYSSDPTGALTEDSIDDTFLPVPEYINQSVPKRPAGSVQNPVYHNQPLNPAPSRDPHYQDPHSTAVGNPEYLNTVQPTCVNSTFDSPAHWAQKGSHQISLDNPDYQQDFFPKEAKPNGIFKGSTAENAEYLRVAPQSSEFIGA
Method in brief: as §1

[6] = target: T6, various mutants of kinase EGFR (BaF3 cell lines stably transfected with kinase) (Homo sapiens, UniProt P00533)
T6 construct: other: BaF3 cells stably transfected with EGFR Δ19Del; MTS, 48 h; other: BaF3 cell line stably transfected with EGFR Δ19Del
Method in brief: as §1

[7] = BaF3 cells stably transfected with EGFR L858R/T790M, read-out: IC50, growth inhibition, L858R/T790M
[8] = BaF3 cells stably transfected with EGFR Δ19Del/T790M, read-out: IC50, growth inhibition, Δ19Del/T790M
[9] = BaF3 cells stably transfected with EGFR L858R/T790M/C797S, read-out: IC50, growth inhibition, L858R/T790M/C797S
[10] = BaF3 cells stably transfected with EGFR L858R, read-out: IC50, growth inhibition, L858R
[11] = BaF3 cells stably transfected with EGFR Δ19Del/T790M/C797S, read-out: IC50, growth inhibition, Δ19Del/T790M/C797S
[12] = BaF3 cells stably transfected with EGFR Δ19Del, read-out: IC50, growth inhibition, Δ19Del
[13] = BaF3 cell line stably transfected with EGFR L858R/T790M, read-out: L858R/ T790M growth inhibitory activity IC50
[14] = BaF3 cell line stably transfected with EGFR Δ19Del/T790M, read-out: Δ19Del/ T790M growth inhibitory activity IC50
[15] = BaF3 cell line stably transfected with EGFR L858R/T790M/C797S, read-out: L858R/T790M/ C797S growth inhibitory activity IC50
[16] = BaF3 cell line stably transfected with EGFR L858R, read-out: L858R growth inhibitory activity IC50
[17] = BaF3 cell line stably transfected with EGFR Δ19Del/T790M/C797S, read-out: Δ19Del/T790M/ C797S growth inhibitory activity IC50
[18] = BaF3 cell line stably transfected with EGFR Δ19Del, read-out: Δ19Del growth inhibitory activity IC50

Row | Compound | IC50 [1, 7] | IC50 [2, 8] | IC50 [3, 9] | IC50 [4, 10] | IC50 [5, 11] | IC50 [6, 12] | IC50 [1, 13] | IC50 [2, 14] | IC50 [3, 15] | IC50 [4, 16] | IC50 [5, 17] | IC50 [6, 18]
1 | CCc1cc(Nc2ncc(Cl)c(Nc3ccc4nccnc4c3N(C)S(=O)(=O)CC)n2)c(OC)cc1N1CCN(C)CC1 [Compound I-236] | ≤ 50 nM | ≤ 50 nM | ≤ 50 nM | ≤ 50 nM | ≤ 50 nM | ≤ 50 nM |  |  |  |  |  | 
2 | CCc1cc(Nc2ncc(C(F)(F)F)c(Nc3ccc4nccnc4c3N(C)S(C)(=O)=O)n2)c(OC)cc1N1CCC(N2CCN(C)CC2)CC1 [Compound I-35] | ≤ 50 nM | ≤ 50 nM | ≤ 50 nM | ≤ 50 nM | ≤ 50 nM | ≤ 50 nM |  |  |  |  |  | 
3 | COc1cc2c(cc1Nc1ncc(Br)c(Nc3ccc4nccnc4c3N(C)S(C)(=O)=O)n1)CN(C)CC2 [Compound I-89] | 50 to 500 nM | 50 to 500 nM | 50 to 500 nM | 50 to 500 nM | 500 to 2500 nM | 500 to 2500 nM |  |  |  |  |  | 
4 | COc1cc(N2CCC(N3CCN(C)CC3)CC2)c(CC2CC2)cc1Nc1ncc(Cl)c(Nc2ccc3nccnc3c2N(C2CC2)S(C)(=O)=O)n1 [Compound I-242] | 50 to 500 nM | 50 to 500 nM | ≤ 50 nM | 50 to 500 nM | ≤ 50 nM | 50 to 500 nM |  |  |  |  |  | 
5 | CCc1cc(Nc2ncc(Br)c(Nc3ccc4nccnc4c3N(C)S(C)(=O)=O)n2)c(OC)cc1N(C)CCN(C)C [Compound I-392] |  |  |  |  |  |  | 50 to 500 nM | 50 to 500 nM | ≤ 50 nM | 50 to 500 nM | ≤ 50 nM | 50 to 500 nM
6 | COc1nc(N2CCC(N3CCN(C)CC3)CC2)ccc1Nc1ncc(Cl)c(Nc2ccc3nccnc3c2N(C)S(C)(=O)=O)n1 [Compound I-164] | 50 to 500 nM | 500 to 2500 nM | 50 to 500 nM | 50 to 500 nM | 50 to 500 nM | 500 to 2500 nM |  |  |  |  |  | 
7 | CCc1cc(Nc2ncc(Cl)c(Nc3ccc4nccnc4c3N(C3CC3)S(C)(=O)=O)n2)c(OC)nc1N1CCC(N2CCN(C)CC2)CC1 [Compound I-241] | ≤ 50 nM | ≤ 50 nM | 50 to 500 nM | ≤ 50 nM | ≤ 50 nM | ≤ 50 nM |  |  |  |  |  | 
8 | COc1cc(N2CCC(N3CCN(C)CC3)CC2)c(C)cc1Nc1nc(Nc2ccc3nccnc3c2N(C)S(C)(=O)=O)c2sccc2n1 [II-1-2] |  |  |  |  |  |  | 50 to 500 nM | 50 to 500 nM | 50 to 500 nM | 50 to 500 nM | ≤ 50 nM | 50 to 500 nM
9 | COc1nc(N2CCC(N3CCN(C)CC3)CC2)c(C)cc1Nc1nc(Nc2ccc3nccnc3c2N(C)S(C)(=O)=O)c2[nH]ccc2n1 [II-1-28] |  |  |  |  |  |  | 500 to 2500 nM | 500 to 2500 nM | 500 to 2500 nM | 500 to 2500 nM | 500 to 2500 nM | 500 to 2500 nM
10 | CCc1cc(Nc2nc(Nc3ccc4nccnc4c3N(C)S(C)(=O)=O)c3sccc3n2)c(OC)cc1N1CCC(N2CCN(C)CC2)CC1 [II-1-3] |  |  |  |  |  |  | 50 to 500 nM | 50 to 500 nM | ≤ 50 nM | 50 to 500 nM | ≤ 50 nM | 50 to 500 nM
11 | COc1cc(N2CCC(N3CCN(C)CC3)CC2)c(Cc2ccccc2)cc1Nc1ncc(Cl)c(Nc2ccc3nccnc3c2N(C)S(C)(=O)=O)n1 [Compound I-168] | 500 to 2500 nM | 50 to 500 nM | 500 to 2500 nM | 500 to 2500 nM | 500 to 2500 nM | 500 to 2500 nM |  |  |  |  |  | 
12 | COc1cc(N2CCC(N3CCN(C)CC3)CC2)ccc1Nc1ncc([N+](=O)[O-])c(Nc2ccc3nccnc3c2N(C)S(C)(=O)=O)n1 [Compound I-30] | 50 to 500 nM | 500 to 2500 nM | 500 to 2500 nM | 500 to 2500 nM | 50 to 500 nM | 500 to 2500 nM |  |  |  |  |  | 
13 | COc1cc(N2CCC(N3CCN(C)CC3)CC2)c(C)cc1Nc1ncc(Br)c(Nc2ccc3nccnc3c2N(C)S(=O)(=O)C(C)C)n1 [Compound I-134] | ≤ 50 nM | ≤ 50 nM | ≤ 50 nM | 50 to 500 nM | ≤ 50 nM | 50 to 500 nM |  |  |  |  |  | 
14 | C=Cc1cc(Nc2ncc(C(F)(F)F)c(Nc3ccc4nccnc4c3N(C)S(C)(=O)=O)n2)c(OC(F)(F)F)cc1N1CCC(N2CCN(C)CC2)CC1 [Compound I-202] | ≤ 50 nM | ≤ 50 nM | 50 to 500 nM | 50 to 500 nM | ≤ 50 nM | 50 to 500 nM |  |  |  |  |  | 
